Measured values published in patent US20250129027A1 (APOGEE PHARMACEUTICALS, INC., priority 2023, published 2025).

Key:
human recombinant FAAH = human recombinant FAAH (Homo sapiens (Human), UniProt O00519); test: In vitro inhibition of FAAH activity (fluorescent inhibitor screening kit, AMC arachidonoyl amide); assay type: biochemical; conditions: human recombinant FAAH; read-out: Inhibition on FAAH activity (IC50)
Source text: The inhibitory effect of compounds of Formula (I-IV) on the activity of human recombinant FAAH was studied using a commercial inhibitor screening kit (Cayman Chemicals, Godlewski et al., 2010 [19]). In brief, FAAH hydrolyzes AMC arachidonoyl amide resulting in the release of the fluorescent product, while the inhibitor will inhibit the FAAH activity and thus reduce the fluorescent signal. The resulting fluorophore can be analyzed using an excitation wavelength of 340-360 nm and an emission wavelength of 450-465 nm by a plate reader (Synergy H1, Biotek). Inhibition is calculated as a percentage of the treated sample over the non-treated control based on the signal values, and where possible, a range of concentrations of compounds was tested to find the IC50 values (i.e. the concentration of compound that inhibited 50% FAAH activity).

human recombinant MAGL = human recombinant MAGL (Homo sapiens (Human), UniProt Q99685); test: In vitro inhibition of MAGL activity (inhibitor screening kit, 4-nitrophenylacetate); assay type: biochemical; conditions: human recombinant MAGL
Procedure: The inhibitory effect of the compounds on activity of human recombinant MAGL was also studied using a commercial inhibitor screening kit (Cayman Chemicals). In brief, MAGL hydrolyzes 4-nitrophenylacetate resulting in a yellow product, 4-nitrophenol with an absorbance at 405-412 nm, while the inhibitor will inhibit the MAGL activity and thus reduce the yellow signal. The absorbance of the yellow product can be analyzed using the plate reader. Inhibition is calculated as a percentage of the treated sample over the non-treated MAGL control based on the signal values.

human recombinant MAGL, sequence (Q99685 whole entry): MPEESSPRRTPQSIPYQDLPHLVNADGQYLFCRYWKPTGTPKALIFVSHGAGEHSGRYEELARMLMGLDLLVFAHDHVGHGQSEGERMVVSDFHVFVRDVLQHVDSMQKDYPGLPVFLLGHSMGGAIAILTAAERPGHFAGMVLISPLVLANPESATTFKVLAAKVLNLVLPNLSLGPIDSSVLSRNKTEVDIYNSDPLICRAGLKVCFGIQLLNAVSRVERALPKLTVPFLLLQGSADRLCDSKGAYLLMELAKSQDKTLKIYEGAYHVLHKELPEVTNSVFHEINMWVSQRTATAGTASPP
human recombinant FAAH, sequence (O00519 whole entry): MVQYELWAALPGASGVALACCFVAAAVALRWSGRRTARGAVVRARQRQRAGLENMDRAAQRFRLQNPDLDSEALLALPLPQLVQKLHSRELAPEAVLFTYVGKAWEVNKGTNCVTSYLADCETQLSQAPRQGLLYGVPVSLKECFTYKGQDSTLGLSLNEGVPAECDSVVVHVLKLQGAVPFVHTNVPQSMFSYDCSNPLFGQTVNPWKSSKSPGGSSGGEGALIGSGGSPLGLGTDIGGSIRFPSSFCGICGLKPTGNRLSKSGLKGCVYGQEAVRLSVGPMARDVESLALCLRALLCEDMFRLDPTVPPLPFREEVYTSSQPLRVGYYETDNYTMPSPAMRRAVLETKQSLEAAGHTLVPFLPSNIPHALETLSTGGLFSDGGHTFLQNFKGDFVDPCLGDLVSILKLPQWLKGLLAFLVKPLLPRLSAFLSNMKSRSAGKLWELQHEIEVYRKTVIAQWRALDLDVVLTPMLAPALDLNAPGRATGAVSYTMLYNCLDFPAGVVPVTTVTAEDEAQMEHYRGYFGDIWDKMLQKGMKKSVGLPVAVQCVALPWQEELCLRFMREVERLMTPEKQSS

COc1ccc(OC(=O)NC2CCCCCC2)cc1-c1cncc(-c2nccs2)c1 [Example 126, 4-methoxy-3-(5-(thiazol-2-yl)pyridin-3-yl)phenyl cycloheptylcarbamate]
IC50 (human recombinant FAAH): 100 to 1000 nM | IC50 (human recombinant MAGL): > 10000 nM

O=C(NC1CCCC1)Oc1cccc(-c2cncc(-c3ccno3)c2)c1 [Example 106, 3-(5-(isoxazol-5-yl)pyridin-3-yl)phenyl cyclopentylcarbamate]
IC50 (human recombinant FAAH): 10 to 100 nM | IC50 (human recombinant MAGL): > 10000 nM

COc1ccc(OC(=O)NCC2CCCCC2)cc1-c1cncc(-c2ccc[nH]2)c1 [Example 42, 3-(5-(1H-pyrrol-2-yl)pyridin-3-yl)-4-methoxyphenyl (cyclohexylmethyl)carbamate]
IC50 (human recombinant FAAH): 100 to 1000 nM | IC50 (human recombinant MAGL): ~10000 nM

CCCCN(CCCC)C(=O)Oc1cccc(-c2cncc(-c3nnco3)c2)c1 [Example 155, 3-(5-(1,3,4-oxadiazol-2-yl)pyridin-3-yl)phenyl dibutylcarbamate]
IC50 (human recombinant FAAH): > 1000 nM | IC50 (human recombinant MAGL): ~10000 nM

O=C(NCc1ccccc1)Oc1ccc(O)c(-c2cncc(-c3nnn[nH]3)c2)c1 [Example 246, 3-(5-(1H-tetrazol-5-yl)pyridin-3-yl)-4-hydroxyphenyl benzylcarbamate]
IC50 (human recombinant FAAH): > 1000 nM | IC50 (human recombinant MAGL): > 10000 nM

O=C(NCC1CCCCC1)Oc1ccc(O)c(-c2cncc(-c3ncn[nH]3)c2)c1 [Example 227, 3-(5-(1H-1,2,4-triazol-5-yl)pyridin-3-yl)-4-hydroxyphenyl (cyclohexyl methyl) carbamate]
IC50 (human recombinant FAAH): 100 to 1000 nM | IC50 (human recombinant MAGL): > 10000 nM

CCCCCCCCNC(=O)Oc1cc(-c2cncc(-c3ncco3)c2)ccc1OC [Example 84, 2-methoxy-5-(5-(oxazol-2-yl)pyridin-3-yl)phenyl octylcarbamate]
IC50 (human recombinant FAAH): 100 to 1000 nM | IC50 (human recombinant MAGL): ~10000 nM

O=C(NCc1ccccc1)Oc1cccc(-c2cncc(-c3nnn[nH]3)c2)c1 [Example 240, 3-(5-(1H-tetrazol-5-yl)pyridin-3-yl)phenyl benzylcarbamate]
IC50 (human recombinant FAAH): > 1000 nM | IC50 (human recombinant MAGL): > 10000 nM

O=C(NCc1ccccc1)Oc1cccc(-c2cncc(-c3ncn[nH]3)c2)c1 [Example 221, 3-(5-(1H-1,2,4-triazol-5-yl)pyridin-3-yl)phenyl benzyl carbamate]
IC50 (human recombinant FAAH): 100 to 1000 nM | IC50 (human recombinant MAGL): > 10000 nM

COc1ccc(OC(=O)NC2CCCC2)cc1-c1cncc(-c2cccs2)c1 [Example 68, 4-methoxy-3-(5-(thiophen-2-yl)pyridin-3-yl)phenyl cyclopentylcarbamate]
IC50 (human recombinant FAAH): 100 to 1000 nM | IC50 (human recombinant MAGL): ~10000 nM

CN(C)c1ccc(OC(=O)NC2CCCCCC2)cc1-c1cncc(-c2nnco2)c1 [Example 185, 3-(5-(1,3,4-oxadiazol-2-yl)pyridin-3-yl)-4-(dimethylamino)phenyl cycloheptylcarbamate]
IC50 (human recombinant FAAH): 100 to 1000 nM | IC50 (human recombinant MAGL): > 10000 nM

O=C(NC1CCCCCC1)Oc1cccc(-c2cncc(-c3nnn[nH]3)c2)c1 [Example 243, 3-(5-(1H-tetrazol-5-yl)pyridin-3-yl)phenyl cycloheptylcarbamate]
IC50 (human recombinant FAAH): > 1000 nM | IC50 (human recombinant MAGL): > 10000 nM

COc1ccc(OC(=O)NC2CCCC2)cc1-c1cncc(-c2ccc[nH]2)c1 [Example 44, 3-(5-(1H-pyrrol-2-yl)pyridin-3-yl)-4-methoxyphenyl cyclopentylcarbamate]
IC50 (human recombinant FAAH): > 1000 nM | IC50 (human recombinant MAGL): > 10000 nM

O=C(NCC1CCCCC1)Oc1ccc(O)c(-c2cncc(-c3nnn[nH]3)c2)c1 [Example 245, 3-(5-(1H-tetrazol-5-yl)pyridin-3-yl)-4-hydroxyphenyl (cyclohexylmethyl)carbamate]
IC50 (human recombinant FAAH): > 1000 nM | IC50 (human recombinant MAGL): > 10000 nM

COc1ccc(OC(=O)NCC2CCCCC2)cc1-c1cncc(-c2nnco2)c1 [Example 168, 3-(5-(1,3,4-oxadiazol-2-yl)pyridin-3-yl)-4-methoxyphenyl (cyclohexylmethyl)carbamate]
IC50 (human recombinant FAAH): 100 to 1000 nM | IC50 (human recombinant MAGL): > 10000 nM

O=C(NC1CCCC1)Oc1cccc(-c2cncc(-c3ccc[nH]3)c2)c1 [Example 38, 3-(5-(1H-pyrrol-2-yl)pyridin-3-yl)phenyl cyclopentylcarbamate]
IC50 (human recombinant FAAH): 100 to 1000 nM | IC50 (human recombinant MAGL): > 10000 nM

CCCCCCCCNC(=O)Oc1cccc(-c2cncc(C(=O)NO)c2)c1 [Example 23, 3-(5-(hydroxycarbamoyl)pyridin-3-yl)phenyl octylcarbamate]
IC50 (human recombinant FAAH): > 1000 nM | IC50 (human recombinant MAGL): > 10000 nM

CCCCCCCNC(=O)Oc1cccc(-c2cncc(C=O)c2)c1 [Example 15, 3-(5-formylpyridin-3-yl)phenyl heptylcarbamate]
IC50 (human recombinant FAAH): 10 to 100 nM | IC50 (human recombinant MAGL): 10000 to 50000 nM

O=C(Nc1ccccc1)Oc1ccc(OC(F)(F)F)c(-c2cncc(-c3nnco3)c2)c1 [Example 203, 3-(5-(1,3,4-oxadiazol-2-yl)pyridin-3-yl)-4-(trifluoromethoxy)phenyl phenylcarbamate]
IC50 (human recombinant FAAH): > 1000 nM | IC50 (human recombinant MAGL): > 10000 nM

COc1ccc(OC(=O)NC2CCCC2)cc1-c1cncc(-c2nnn[nH]2)c1 [Example 253, 3-(5-(1H-tetrazol-5-yl)pyridin-3-yl)-4-methoxyphenyl cyclopentylcarbamate]
IC50 (human recombinant FAAH): > 1000 nM | IC50 (human recombinant MAGL): > 10000 nM

COc1ccc(OC(=O)NC2CCCCC2)cc1-c1cncc(-c2nnn[nH]2)c1 [Example 254, 3-(5-(1H-tetrazol-5-yl)pyridin-3-yl)-4-methoxyphenyl cyclohexylcarbamate]
IC50 (human recombinant FAAH): > 1000 nM | IC50 (human recombinant MAGL): > 10000 nM

Cc1cc(OC(=O)NCC2CCCCC2)cc(-c2cncc(-c3ncco3)c2)c1 [Example 99, 3-methyl-5-(5-(oxazol-2-yl)pyridin-3-yl)phenyl (cyclohexylmethyl)carbamate]
IC50 (human recombinant FAAH): 100 to 1000 nM | IC50 (human recombinant MAGL): ~10000 nM

COc1ccc(OC(=O)NCC2CCCCC2)cc1-c1cncc(-c2ncn[nH]2)c1 [Example 233, 3-(5-(1H-1,2,4-triazol-5-yl)pyridin-3-yl)-4-methoxyphenyl (cyclohexylmethyl) carbamate]
IC50 (human recombinant FAAH): 100 to 1000 nM | IC50 (human recombinant MAGL): ~10000 nM

CCCCCCCCNC(=O)Oc1ccc(O)c(-c2cncc(-c3ncn[nH]3)c2)c1 [Example 226, 3-(5-(1H-1,2,4-triazol-5-yl)pyridin-3-yl)-4-hydroxyphenyl octyl carbamate]
IC50 (human recombinant FAAH): 1 to 10 nM | IC50 (human recombinant MAGL): > 10000 nM

COc1ccc(OC(=O)NC2CCC(C)CC2)cc1-c1cncc(-c2nnco2)c1 (centres unmarked) [Example 171, 3-(5-(1,3,4-oxadiazol-2-yl)pyridin-3-yl)-4-methoxyphenyl (4-methylcyclohexyl)carbamate]
IC50 (human recombinant FAAH): 100 to 1000 nM | IC50 (human recombinant MAGL): > 10000 nM

COc1ccc(OC(=O)NC2CCCCC2)cc1-c1cncc(-c2ncn[nH]2)c1 [Example 236, 3-(5-(1H-1,2,4-triazol-5-yl)pyridin-3-yl)-4-methoxyphenyl cyclohexyl carbamate]
IC50 (human recombinant FAAH): 100 to 1000 nM | IC50 (human recombinant MAGL): > 10000 nM

O=C(NC1CCCCC1)Oc1cccc(-c2cncc(-c3ncno3)c2)c1 [Example 205, 3-(5-(1,2,4-oxadiazol-5-yl)pyridin-3-yl)phenyl cyclohexylcarbamate]
IC50 (human recombinant FAAH): 10 to 100 nM | IC50 (human recombinant MAGL): > 10000 nM

CCCCCCCCNC(=O)Oc1ccc(O)c(-c2cncc(-c3nnn[nH]3)c2)c1 [Example 244, 3-(5-(1H-tetrazol-5-yl)pyridin-3-yl)-4-hydroxyphenyl octylcarbamate]
IC50 (human recombinant FAAH): 100 to 1000 nM | IC50 (human recombinant MAGL): > 10000 nM

O=C(NC1CCCCC1)Oc1ccc(OC(F)(F)F)c(-c2cncc(-c3nnco3)c2)c1 [Example 200, 3-(5-(1,3,4-oxadiazol-2-yl)pyridin-3-yl)-4-(trifluoromethoxy)phenyl cyclohexylcarbamate]
IC50 (human recombinant FAAH): 100 to 1000 nM | IC50 (human recombinant MAGL): > 10000 nM

COc1ccc(OC(=O)NC2CCCCC2)cc1-c1cncc(-c2ncco2)c1 [Example 81, 4-methoxy-3-(5-(oxazol-2-yl)pyridin-3-yl)phenyl cyclohexylcarbamate]
IC50 (human recombinant FAAH): 10 to 100 nM | IC50 (human recombinant MAGL): > 10000 nM

O=C(NC1CCCC1)Oc1cccc(-c2cncc(-c3ncco3)c2)c1 [Example 75, 3-(5-(oxazol-2-yl)pyridin-3-yl)phenyl cyclopentylcarbamate]
IC50 (human recombinant FAAH): 10 to 1000 nM | IC50 (human recombinant MAGL): > 10000 nM

CC1CCC(NC(=O)Oc2ccc(O)c(-c3cncc(-c4nnco4)c3)c2)CC1 (centres unmarked) [Example 159]
IC50 (human recombinant FAAH): 10 to 100 nM | IC50 (human recombinant MAGL): > 10000 nM

COc1ccc(OC(=O)NCC2CCCCC2)cc1-c1cncc(-c2ccco2)c1 [Example 54, 3-(5-(furan-2-yl)pyridin-3-yl)-4-methoxyphenyl (cyclohexylmethyl)carbamate]
IC50 (human recombinant FAAH): 100 to 1000 nM | IC50 (human recombinant MAGL): ~10000 nM

CC1CCC(NC(=O)Oc2ccc(F)c(-c3cncc(-c4ncco4)c3)c2)CC1 (centres unmarked) [Example 86, 4-fluoro-3-(5-(oxazol-2-yl)pyridin-3-yl)phenyl (4-methylcyclohexyl)carbamate]
IC50 (human recombinant FAAH): 10 to 100 nM | IC50 (human recombinant MAGL): > 10000 nM

COc1ccc(OC(=O)NC2CCCCCC2)cc1-c1cncc(-c2ccc[nH]2)c1 [Example 46, 3-(5-(1H-pyrrol-2-yl)pyridin-3-yl)-4-methoxyphenyl cycloheptylcarbamate]
IC50 (human recombinant FAAH): 100 to 1000 nM | IC50 (human recombinant MAGL): > 10000 nM

COc1ccc(OC(=O)NC2CCCCCC2)cc1-c1cncc(-c2cccs2)c1 [Example 70, 4-methoxy-3-(5-(thiophen-2-yl)pyridin-3-yl)phenyl cycloheptylcarbamate]
IC50 (human recombinant FAAH): 100 to 1000 nM | IC50 (human recombinant MAGL): > 10000 nM

CCOC(=O)c1cncc(-c2cccc(OC(=O)NC3CCCCC3)c2)c1 [Example 6, ethyl 5-(3-((cyclohexylcarbamoyl)oxy)phenyl)nicotinate]
IC50 (human recombinant FAAH): > 100 nM | IC50 (human recombinant MAGL): > 100 nM
